Patent publication US8232067B2, “Disrupting FCRN-albumin interactions” (Brigham & Women's Hospital, Inc., priority 2009, dated 2012)

What was measured:
[1] = tested on: Balb/c mice; experiment: Mortality assay (1); assay type: in vivo; settings: 12 mg of acetaminophen; mice deficient in FcRn compared to wild-type Balb/c mice
Description: Wild-type Balb/c mice and Balb/c mice deficient in FcRn were administered 12 mg of acetaminophen. The dose administered is equivalent to 42 g in a 70 kg human (84 tabs of 500 mg extra strength Tylenol™ (acetaminophen)).

[2] = Serum and bile measurements after tail vein infusion (ELISA); assay type: in vivo; settings: FcRn deficient mice vs wild-type, 24 hours after infusion
Description: Human IgG and rat albumin were administered via the tail vein to wild-type (WT) or FcRn deficient (−/−) mice 24 hours prior to the harvest of serum and bile. For serum and bile measurements, mice were euthanized before blood was removed via the heart and the bile was removed via the gallbladder. Concentration of IgG and albumin were measured by ELISA. Similar results were obtained from bile collected via common bile duct cannulation.
After 24 hours, blood/serum and gallbladder bile were removed as described in Example 1.

For `CC(=O)Nc1ccc(O)cc1` [acetaminophen], the mortality [1] was “decreased mortality”.
For “rat albumin: Rat serum albumin administered via the tail vein to mice”, the “levels of rat albumin in the bile” value [2] was “elevated levels”.
